From patent US8569331B2 (ArQule, Inc., priority 2010, dated 2013) come the findings set out here.

Where a name gives a salt, the structure may show the parent alone.

For this assay, the target named is T1, AKT1 (Homo sapiens, UniProt P31749).
T1 construct: Full-length non-phosphorylated AKT1 is diluted in assay buffer
T1 sequence (P31749 whole entry): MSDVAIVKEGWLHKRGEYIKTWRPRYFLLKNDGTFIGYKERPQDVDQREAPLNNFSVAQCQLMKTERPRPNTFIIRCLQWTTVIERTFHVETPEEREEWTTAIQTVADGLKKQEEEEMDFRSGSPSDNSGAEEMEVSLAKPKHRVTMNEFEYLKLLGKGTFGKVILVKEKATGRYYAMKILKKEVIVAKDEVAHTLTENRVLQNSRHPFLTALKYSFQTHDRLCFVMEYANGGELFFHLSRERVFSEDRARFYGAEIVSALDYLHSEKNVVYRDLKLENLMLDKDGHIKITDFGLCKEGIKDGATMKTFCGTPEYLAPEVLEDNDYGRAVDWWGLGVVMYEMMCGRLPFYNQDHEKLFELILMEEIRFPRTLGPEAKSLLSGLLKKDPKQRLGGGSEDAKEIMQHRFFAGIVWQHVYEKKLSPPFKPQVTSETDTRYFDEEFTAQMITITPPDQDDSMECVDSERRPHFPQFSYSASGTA
In words: AKT1 Alpha Screen Assay. To be noted: full-length non-phosphorylated AKT1 8 nM, activated by PDK1 and MAPKAPK2, lipid vesicles, 50 μM ATP; biotinylated crosstide substrate; AlphaScreen. Format: biochemical. As for the experimental part:
AKT1 activity is assayed using the GSK3-derived biotinylated peptide substrate, crosstide (biotin-[…]), and AlphaScreen™ (Amplified Luminescent Proximity Homogeneous Assay) technology. AKT1 activation is achieved by the addition of the activating kinases PDK1 and MAPKAPK2, lipid vesicles, and ATP. The extent of peptide phosphorylation is determined using a phospho-AKT substrate antibody and acceptor beads conjugated to Protein A and donor beads conjugated to streptavidin that will bind to the biotin on the peptide. Excitation of the donor beads converts ambient oxygen to excited singlet oxygen which, when in close proximity to acceptor beads, reacts with acceptor beads resulting in signal amplification.
Test inhibitors and controls are prepared in 10% DMSO at 10-fold the desired final concentration, and added to each well of a reaction plate (Corning 96-well half-area solid white nonbinding surface plate) in a volume of 2.5 μL. Full-length non-phosphorylated AKT1 is diluted in assay buffer (50 mM Tris, pH 8.0, 0.02 mg/mL BSA, 10 mM MgCl2, 1 mM EGTA, 10% glycerol, 0.2 mM Na3VO4, 1 mM DTT, 0.1 mM β-glycerophosphate, and 0.2 mM NaF) and added to each well in a volume of 17.5 μL for a final concentration in the 25 μL reaction of 8 nM (Akt1). […] Assay plates are incubated for 90 minutes at room temperature in the dark, and the plates are read on a Perkin Elmer Envision Multilabel plate reader (excitation wavelength: […], emission wavelength: 570 nm).
Reaction conditions: 2.5 μL 10× Akt inhibitor in 10% DMSO; 17.5 μL non-phosphorylated Akt or buffer for blank; 20 minute pre-incubation at room temperature; 5 μL Reaction Mix (5×ATP, 5×substrate, 5×PDK1, 5×MK2, and 5× lipid vesicle mixture); 30 minute incubation at room temperature; 10 μL Detection Buffer; 90 minute incubation at room temperature and Detection (excitation: 640 nm, emission: 570 nm).
For orientation: In Alpha technology, singlet oxygen from a donor bead excites a nearby acceptor bead.
The molecule `NC1(c2ccc(-c3c(-c4ccc(F)cc4)nc4n3-c3cccnc3Nc3ccccc3-4)cc2F)CCC1` [Example 135] yielded a concentration for half-maximal inhibition (IC50) of 0.119 µM. For `C[C@@H](N)c1ccc(-c2c(-c3ccccc3)nc3n2-c2cccnc2Nc2ccccc2-3)cc1` [Example 148], it took 0.066 µM to reach half-maximal inhibition (IC50). In turn, `Cn1nccc1-c1nc2n(c1-c1ccc(C3(N)CCC3)cc1)-c1cccnc1Nc1ccccc1-2` [Example 70] gave an IC50 of 0.343 µM. `COc1ncc(-c2nc3n(c2-c2ccc(C4(N)CCC4)cc2)-c2cccnc2Nc2ccccc2-3)s1` [Example 68]: it took 0.027 µM to reach half-maximal inhibition (IC50).

Take `NC1(c2ccc(-c3c(-c4ccoc4)nc4n3-c3cccnc3Nc3ccccc3-4)cc2)CCC1` [Example 9]: the IC50 is 0.028 µM. `NC1(c2ccc(-c3c(-c4cccs4)nc4n3-c3cccnc3Nc3ccccc3-4)cc2)CCC1` [Example 83] displayed a half-inhibitory concentration (IC50) of 0.073 µM. In turn, `NC1(c2ccc(-c3c(-c4ccc(-c5ccccc5)cc4)nc4n3-c3cccnc3Nc3ccccc3-4)cc2)CCC1` [Example 138] had an IC50 of 0.053 µM.

`NC1(c2ccc(-c3c(-c4cnccn4)nc4n3-c3cccnc3Nc3ccccc3-4)cc2)CCC1` [Example 15] returned an IC50 of 0.014 µM. The figure for `NC1(c2ccc(-c3c(-c4ncco4)nc4n3-c3cccnc3Nc3ccccc3-4)cc2)CCC1` [Example 151] is 0.004 µM; for `NC1(c2ccc(-c3c(-c4nccs4)nc4n3-c3cccnc3Nc3ccccc3-4)cc2)CCC1` [Example 150] it is 0.003 µM. For `NC1(c2ccc(-c3c(CC(=O)Nc4ccccc4)nc4n3-c3cccnc3Nc3ccccc3-4)cc2)CCC1` [Example 145], the IC50 is over 1 µM. The value for `Nc1ncc(-c2nc3n(c2-c2ccc(C4(N)CCC4)cc2)-c2cccnc2Nc2ccccc2-3)cn1` [Example 31, trihydrochloride] was 0.003 µM. In the case of `C[C@H](N)c1ccc(-c2c(-c3ccccc3)nc3n2-c2cccnc2Nc2ccccc2-3)cc1` [Example 147], half-maximal inhibition (IC50) was put at 0.046 µM. The molecule `Cc1ccccc1-c1nc2n(c1-c1ccc(C3(N)CCC3)cc1)-c1cccnc1Nc1ccccc1-2` [Example 141] gave an IC50 of 0.451 µM.

Consider `NCc1ccc(-c2c(-c3ccccc3)nc3n2-c2cccnc2Nc2ccccc2-3)cc1` [Example 143], for which the midpoint of inhibition, the IC50, lay at 0.122 µM. Turning to `Cc1cccc(NC(=O)Cc2nc3n(c2-c2ccc(C4(N)CCC4)cc2)-c2cccnc2Nc2ccccc2-3)n1` [Example 146], the half-inhibitory concentration (IC50) was over 1 µM. The molecule `NC1(c2ccc(-c3c(-c4ccccc4F)nc4n3-c3cccnc3Nc3ccccc3-4)cc2)CCC1` [Example 136] returned an IC50 of 0.084 µM. The figure for `NCc1ccc(-c2nc3n(c2-c2ccc(C4(N)CCC4)cc2)-c2cccnc2Nc2ccccc2-3)cc1` [Example 149] is 0.018 µM; for `NC1(c2ccc(-c3c(-c4cccc(F)c4)nc4n3-c3cccnc3Nc3ccccc3-4)cc2)CCC1` [Example 139] it is 0.074 µM; for `COc1ccc(-c2nc3n(c2-c2ccc(C4(N)CCC4)c(F)c2)-c2cccnc2Nc2ccccc2-3)cc1` [Example 127] it is 0.083 µM. `NC1(c2ccc(-c3nc4n(c3-c3ccccc3)-c3cccnc3Nc3ccccc3-4)cc2)CCC1` [Example 144] registered an IC50 of 0.184 µM. With `Cc1ccccc1-c1nc2n(c1-c1ccc(C3(N)CCC3)c(F)c1)-c1cccnc1Nc1ccccc1-2` [Example 142], the IC50 was found to be 0.485 µM. On to `NC1(c2ccc(-c3c(-c4ccccc4F)nc4n3-c3cccnc3Nc3ccccc3-4)cc2F)CCC1` [Example 137], for which half-maximal inhibition (IC50) was put at 0.168 µM. For `NC1(c2ccc(-c3c(-c4cccc(F)c4)nc4n3-c3cccnc3Nc3ccccc3-4)cc2F)CCC1` [Example 140], the IC50 is 0.295 µM. The figure for `NC1(c2ccc(-c3c(-c4ccc(F)cc4)nc4n3-c3cccnc3Nc3ccccc3-4)cc2)CCC1` [Example 134] is 0.053 µM.

Usually IC50 stands for the concentration at which inhibition is half-maximal. The low end stands for greater potency in that assay, the high end for weaker potency in that assay.
